Measured values as given in ChEMBL document CHEMBL5543168, “Discovery of Urea Derivatives of Celastrol as Selective Peroxiredoxin 1 Inhibitors against Colorectal Cancer Cells” (J Med Chem, 2024).

Columns and labels:
[1] = test system: HCT-116; assay: Inhibition of cell viability in human HCT-116 cells incubated for 72 hrs by Cell Titer Glo assay; assay type: functional, cell-based; details: HCT-116, 72 h
[2] = target: T1, Peroxiredoxin-1 (Homo sapiens, UniProt Q06830); assay: Inhibition of recombinant PRDX1 (unknown origin) using H2O2 as substrate preincubated for 0.5 hrs followed by substrate addition by TRX-TrxR-NADPH coupling assay
T1 sequence (Q06830 whole entry): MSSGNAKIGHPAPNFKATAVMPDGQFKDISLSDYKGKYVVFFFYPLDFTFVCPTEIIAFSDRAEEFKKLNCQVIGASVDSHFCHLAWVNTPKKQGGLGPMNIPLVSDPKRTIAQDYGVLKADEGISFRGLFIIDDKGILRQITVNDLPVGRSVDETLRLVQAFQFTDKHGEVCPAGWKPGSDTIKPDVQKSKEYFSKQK

[3] = test system: SW-620; assay: Inhibition of cell viability in human SW620 cells incubated for 72 hrs by Cell Titer Glo assay; assay type: functional, cell-based; details: SW-620, 72 h
[4] = Acute toxicity in C57BL/[…] 6J mouse assessed as pathological change in kidney at 20 mg/kg, ip measured for 2 weeks by H and E staining based analysis; assay type: organism-based; details: in vivo, 336 h
[5] = test system: SW-620; assay: Antitumor activity against human SW620 cells xenografted in BALB/c nude mouse at 2 mg/kg, ip qd for 16 days relative to control; assay type: functional; details: SW-620, 384 h, time 16 day, read-out: TGI
[6] = Acute toxicity in C57BL/[…] 6J mouse assessed as pathological change in liver at 20 mg/kg, ip measured for 2 weeks by H and E staining based analysis; assay type: organism-based; details: in vivo, 336 h
[7] = Acute toxicity in C57BL/[…] 6J mouse assessed as animal death at 20 mg/kg, ip measured for 2 days; assay type: organism-based; details: in vivo, 48 h, time 2 day
[8] = Toxicity in BALB/c nude mouse xenografted with human SW620 cells assessed as body weight loss at 2 mg/kg, ip qd for 7 days; assay type: organism-based, SW-620; details: in vivo, 168 h, time 7 day
[9] = test system: SW-620; assay: cells; details: Homo sapiens, SW-620, 48 h, read-out: Activity
Description: Induction of apoptosis in human SW620 cells assessed as viable cells at 2 uM incubated for 48 hrs by Annexin V-FITC/PI staining based flow cytometry (Rvb = 90.7 %)

[10] = Acute toxicity in C57BL/[…] 6J mouse assessed as pathological change in spleen at 20 mg/kg, ip measured for 2 weeks by H and E staining based analysis; assay type: organism-based; details: in vivo, 336 h
[11] = test system: SW-620; assay: cells; details: Homo sapiens, SW-620, 48 h, read-out: Activity; remark: listed apart in the source
Description: Induction of apoptosis in human SW620 cells assessed as viable cells at 1 uM incubated for 48 hrs by Annexin V-FITC/PI staining based flow cytometry (Rvb = 90.7 %)

[12] = Acute toxicity in C57BL/[…] 6J mouse assessed as pathological change in heart at 20 mg/kg, ip measured for 2 weeks by H and E staining based analysis; assay type: organism-based; details: in vivo, 336 h
[13] = test system: SW-620; assay: cells; details: Homo sapiens, SW-620, 48 h, read-out: Activity; remark: listed apart in the source
Description: Induction of apoptosis in human SW620 cells assessed as viable cells at 0.5 uM incubated for 48 hrs by Annexin V-FITC/PI staining based flow cytometry (Rvb = 90.7 %)

IC50 [1]	IC50 [2]	IC50 [3]	SMILES	other results
> 20 µM	> 20 µM	> 20 µM	CC1=C(O)C(=O)C=C2C1=CC=C1[C@@]2(C)CC[C@@]2(C)[C@@H]3C[C@](C)(NC(=O)NC4(C(=O)O)COC4)CC[C@]3(C)CC[C@]12C	–
0.68 µM	0.33 µM	0.48 µM	CC1=C(O)C(=O)C=C2C1=CC=C1[C@@]2(C)CC[C@@]2(C)[C@@H]3C[C@](C)(NC(=O)N[C@H]4CCOC4=O)CC[C@]3(C)CC[C@]12C	–
2.7 µM	0.45 µM	1.9 µM	CC1=C(O)C(=O)C=C2C1=CC=C1[C@@]2(C)CC[C@@]2(C)[C@@H]3C[C@](C)(NC(=O)NC(CO)CO)CC[C@]3(C)CC[C@]12C	–
0.34 µM	0.46 µM	0.19 µM	COC(=O)[C@@H](NC(=O)N[C@]1(C)CC[C@]2(C)CC[C@]3(C)C4=CC=C5C(=CC(=O)C(O)=C5C)[C@]4(C)CC[C@@]3(C)[C@@H]2C1)C(C)C	–
0.74 µM	0.47 µM	0.64 µM	COC(=O)[C@H](CO)NC(=O)N[C@]1(C)CC[C@]2(C)CC[C@]3(C)C4=CC=C5C(=CC(=O)C(O)=C5C)[C@]4(C)CC[C@@]3(C)[C@@H]2C1	–
1.8 µM	0.54 µM	1.4 µM	COC(=O)[C@H](CCSC)NC(=O)N[C@]1(C)CC[C@]2(C)CC[C@]3(C)C4=CC=C5C(=CC(=O)C(O)=C5C)[C@]4(C)CC[C@@]3(C)[C@@H]2C1	–
0.84 µM	0.53 µM	0.6 µM	CC1=C(O)C(=O)C=C2C1=CC=C1[C@@]2(C)CC[C@@]2(C)[C@@H]3C[C@](C)(NC(=O)N[C@H](C)CO)CC[C@]3(C)CC[C@]12C	–
0.57 µM	0.37 µM	0.35 µM	COC(=O)CC[C@H](NC(=O)N[C@]1(C)CC[C@]2(C)CC[C@]3(C)C4=CC=C5C(=CC(=O)C(O)=C5C)[C@]4(C)CC[C@@]3(C)[C@@H]2C1)C(=O)OC	–
0.43 µM	0.42 µM	0.22 µM	COC(=O)[C@H](Cc1ccc(O)cc1)NC(=O)N[C@]1(C)CC[C@]2(C)CC[C@]3(C)C4=CC=C5C(=CC(=O)C(O)=C5C)[C@]4(C)CC[C@@]3(C)[C@@H]2C1	–
0.41 µM	0.4 µM	0.33 µM	COC(=O)[C@H](CCCCNC(=O)OC(C)(C)C)NC(=O)N[C@]1(C)CC[C@]2(C)CC[C@]3(C)C4=CC=C5C(=CC(=O)C(O)=C5C)[C@]4(C)CC[C@@]3(C)[C@@H]2C1	–
0.23 µM	0.47 µM	0.28 µM	COC(=O)[C@@H]1CCCN1C(=O)N[C@]1(C)CC[C@]2(C)CC[C@]3(C)C4=CC=C5C(=CC(=O)C(O)=C5C)[C@]4(C)CC[C@@]3(C)[C@@H]2C1	–
0.8 µM	0.49 µM	0.33 µM	COC(=O)[C@@H](NC(=O)N[C@]1(C)CC[C@]2(C)CC[C@]3(C)C4=CC=C5C(=CC(=O)C(O)=C5C)[C@]4(C)CC[C@@]3(C)[C@@H]2C1)[C@@H](C)O	–
0.56 µM	0.31 µM	0.42 µM	CC1=C(O)C(=O)C=C2C1=CC=C1[C@@]2(C)CC[C@@]2(C)[C@@H]3C[C@](C)(NC(=O)N[C@@H](C)C(N)=O)CC[C@]3(C)CC[C@]12C	–

Further lines, the compound ahead of its results:

SMILES	IC50 [1]	IC50 [2]	IC50 [3]	other results
CCOC(=O)C1(NC(=O)N[C@]2(C)CC[C@]3(C)CC[C@]4(C)C5=CC=C6C(=CC(=O)C(O)=C6C)[C@]5(C)CC[C@@]4(C)[C@@H]3C2)CC1	0.65 µM	0.36 µM	0.35 µM	–
COC(=O)[C@H](C)NC(=O)N[C@]1(C)CC[C@]2(C)CC[C@]3(C)C4=CC=C5C(=CC(=O)C(O)=C5C)[C@]4(C)CC[C@@]3(C)[C@@H]2C1	0.8 µM	0.49 µM	0.33 µM	–
COC(=O)[C@@H]1C[C@@H](O)CN1C(=O)N[C@]1(C)CC[C@]2(C)CC[C@]3(C)C4=CC=C5C(=CC(=O)C(O)=C5C)[C@]4(C)CC[C@@]3(C)[C@@H]2C1	0.44 µM	0.36 µM	0.26 µM	–
CC1=C(O)C(=O)C=C2C1=CC=C1[C@@]2(C)CC[C@@]2(C)[C@@H]3C[C@](C)(C(=O)O)CC[C@]3(C)CC[C@]12C [CELASTROL]	1.4 µM	–	0.67 µM	Activity [4]: Toxic; inhibition in vivo at 2 mg/kg [5]: 28%; Activity [6]: Toxic; Activity [7]: Toxic; Activity [8]: Toxic; viability at 2 µM [9]: 27.4%; Activity [10]: Toxic; viability at 1 µM [11]: 84.2%; Activity [12]: Toxic; viability at 0.5 µM [13]: 87.4%
COC(=O)C1(NC(=O)N[C@]2(C)CC[C@]3(C)CC[C@]4(C)C5=CC=C6C(=CC(=O)C(O)=C6C)[C@]5(C)CC[C@@]4(C)[C@@H]3C2)COC1	0.8 µM	0.38 µM	0.39 µM	–
COC(=O)CNC(=O)N[C@]1(C)CC[C@]2(C)CC[C@]3(C)C4=CC=C5C(=CC(=O)C(O)=C5C)[C@]4(C)CC[C@@]3(C)[C@@H]2C1	0.83 µM	0.64 µM	0.49 µM	–
CC1=C(O)C(=O)C=C2C1=CC=C1[C@@]2(C)CC[C@@]2(C)[C@@H]3C[C@](C)(NC(=O)N[C@H]4C[C@H](CO)[C@H](O)C4)CC[C@]3(C)CC[C@]12C	3.1 µM	0.46 µM	2.1 µM	–
COC(=O)[C@H](Cc1c[nH]c2ccccc12)NC(=O)N[C@]1(C)CC[C@]2(C)CC[C@]3(C)C4=CC=C5C(=CC(=O)C(O)=C5C)[C@]4(C)CC[C@@]3(C)[C@@H]2C1	0.56 µM	0.34 µM	0.31 µM	–
CC1=C(O)C(=O)C=C2C1=CC=C1[C@@]2(C)CC[C@@]2(C)[C@@H]3C[C@](C)(NC(=O)NCCOCCO)CC[C@]3(C)CC[C@]12C	1 µM	0.41 µM	0.79 µM	–
CC1=C(O)C(=O)C=C2C1=CC=C1[C@@]2(C)CC[C@@]2(C)[C@@H]3C[C@](C)(NC(=O)NC(CO)(CO)CO)CC[C@]3(C)CC[C@]12C	2.5 µM	0.5 µM	1.1 µM	–
